Source: patent US11926583B2, “Stabilized 1, 25-dihydroxyvitamin D2 and method of making same” (CYTOCHROMA INC., priority 2008, dated 2024)

Test: Accelerated stability testing at 60° C., purity by HPLC
Type: physicochemical
Details: for Purity (absolute %) / Purity (% of initial amount): At 60° C.
Description: The HPLC analysis can suitably follow the parameters in Table 2 below.
Samples of stabilized 1,25-dihydroxyvitamin D2 according to Example 1 and commercially-obtained 1,25-dihydroxyvitamin D2 (SAFC, Madison, Wis. USA) made by crystallization from methyl formate were placed in a 60° C. oven in several 2 ml amber vials with Teflon-lined caps. Samples were taken out at different time points and purity was checked by HPLC according to Example 1. The results are presented in Tables 3 and 4 below and in FIGS. 1 and 2. […] The stabilized material prepared according to the Example 1 will clearly have advantage when any heat is required during formulation.

| SMILES | Purity (absolute %) (0 h) [%] | Purity (% of initial amount) (4 h) [%] | Purity (absolute %) (4 h) [%] | Purity (% of initial amount) (8 h) [%] | Purity (absolute %) (8 h) [%] | Purity (% of initial amount) (16 h) [%] | Purity (absolute %) (16 h) [%] | Purity (% of initial amount) (24 h) [%] | Purity (absolute %) (24 h) [%] | Purity (% of initial amount) (48 h) [%] | Purity (absolute %) (48 h) [%] | Purity (% of initial amount) (72 h) [%] | Purity (absolute %) (72 h) [%] | Purity (% of initial amount) (Initial %) [%] | Stability compared to commercially available material containing residual methyl formate (60° C., up to 72 hours) |
| --- | --- | --- | --- | --- | --- | --- | --- | --- | --- | --- | --- | --- | --- | --- | --- |
| C=C1/C(=C\C=C2/CCC[C@]3(C)[C@@H]([C@H](C)/C=C/[C@H](C)C(C)(C)O)CC[C@@H]23)C[C@@H](O)C[C@@H]1O [Commercial, 1,25-dihydroxyvitamin D2] | 96.80 | 98.33 | 95.18 | 98.12 | 94.98 | 97.82 | 94.69 | 97.09 | 93.98 | 96.97 | 93.86 | 96.92 | 93.82 | 100 | – |
| C=C1/C(=C\C=C2/CCC[C@]3(C)[C@@H]([C@H](C)/C=C/[C@H](C)C(C)(C)O)CC[C@@H]23)C[C@@H](O)C[C@@H]1O [Example 1, 1,25-dihydroxyvitamin D2] | 99.40 | 99.98 | 99.38 | 100 | 99.42 | 99.93 | 99.33 | 100 | 99.42 | 99.90 | 99.31 | 99.50 | 98.89 | – | surprisingly more stable |
